The text below walks through data of publication PMC10306101, “Substrate-derived Sortase A inhibitors: targeting an essential virulence factor of Gram-positive pathogenic bacteria” (Chemical Science, 2023).

For assay [1], the target named is T1, SrtA (Staphylococcus aureus, UniProt Q2FV99).
T1 construct: His6 (N); made in house; host or cells: E. coli BL21, pET21b plasmid
The assay can be described thus: biochemical. Set-up: species or system S. aureus. Particulars: for IC50: IC50, inhibitor 1 μM to 1500 μM, corrected for molar extinction coefficient; for inhibition at 200 µM: read-out: FRET inhibition, 200 nM SrtA, 200 μM inhibitor, HEPES buffer; for inhibition at 200 µM / FRET inhibition: mean ± SE, triplicate; for FRET inhibition: 200 nM SrtA, 200 μM inhibitor, HEPES buffer. Here is the method: In order to screen the activity of SrtA inhibitors, a FRET-based functional assay was used which employs an internally quenched fluorescent (IQF) substrate, Abz-LPETGK(Dnp)-NH2 (Fig. S37a ^†).[5] […] 5-((C4-Nitrobenzyl)thio)-1,3,4-thiadiazol-2-amine was used as a reference inhibitor in the experiment.[42] […]
Fluorescence resonance energy transfer assay
For the FRET assay, the compound 5-((4-nitrobenzyl) thio)-1,3,4-thiadiazol-2-amine was used as a reference and prepared by dissolving 3 µL of the available stock (10 mM) in […] HEPES and 1% DMSO to afford a 300 µM stock concentration for the assay. This reference compound […]
FRET assay was performed with an internally quenched fluorogenic (IQF) substrate to determine the inhibitory activity of the synthesized peptidomimetics. The assay was performed in a 30 μl reaction mixture in HEPES buffer (50 mM HEPES, 150 mM NaCl, 5 mM CaCl2, 0.05% Tween20, pH 7.5). SrtA solution (200 nM) was preincubated with compounds (200 μM) for 15 min at 22 °C followed by the addition of the substrate solution (25 μM Abz-LPETGK(Dnp)-NH2, 5 mM H-Gly3-OH, final assay concentration) in the same buffer. The cleavage of the Abz/Dnp-substrate was quantified by an increase in the fluorescence signal.
The fluorescence signal was monitored each minute for 45 minutes and plotted to obtain the fluorescence rate as a line curve. The assay was performed in 384 well Corning NBS microplates (flat bottom, no lid, low flange, non-binding surface, non-sterile, white polystyrene).
Fluorescence intensity was measured at emission and excitation wavelengths of […] using a Spectramax iD5 plate reader (Molecular Devices, San Jose, CA, USA). Triplicate measurements were taken for each data point to ensure the reproducibility of the results. The average value of the fluorescence signal readouts was plotted against time over […] for each compound to produce a line curve using Origin. The reference compound was used in the experiment to act as a positive control. The slope of each compound curve (Sx) and the slope of the substrate (S0) were extracted using the linear fit function in Microsoft Origin 2019. The percent inhibition was calculated according to the following equation: inhibitory rate = (1 – Sx/S 0) × 100%. For IC50 values, Sx values at different concentrations were plotted against log transformed concentration values and fitted with a sigmodial fit using the DoseResp function using Origin. The bottom asymptote of the dose-response curve was fixed at 0. The data were reported as mean ± SE%. […]

The target of assay [2] is T1, SrtA. The assay is classed as biochemical, S. aureus. Particulars: 200 nM SrtA, inhibitor at 10 μM (detector oversaturation at 200 μM).
Assay [3] has as its system S. aureus strain CCUG10778. Nature of the assay: Growth profiling of S. aureus (absorbance at 600 nm). Type of assay: cell-based. Particulars: 2 to 128 μg mL^−1, TSB medium, up to 48 hours. Here is the method:
To assess whether our most promising compounds have a possibility of being potential antivirulent compounds, they were tested with pathogenic S. aureus bacteria to assess the peptidomimetic inhibitors for their ability to inhibit bacterial growth. Firstly, our compounds were incubated with S. aureus bacteria in a 96-well plate in Tryptic Soy Broth (TSB) medium, while we also included the reference compound used in the single-point in vitro inhibition studies. So far, the covalent binding thiadiazol reference compound was not tested in this respect, but was one of the most promising compounds identified in an earlier screening campaign.[42] The inhibitors were added at various concentrations, ranging from 2 μg mL^−1 to 128 μg mL^−1, and the absorbance at 600 nm was measured as an indication of their optical density (OD600) and by that the bacteria's ability to propagate in liquid media. In the negative control experiments, the bacteria consistently reached an OD600 of 0.6 between 6 and 12 hours (Fig. 3). […]
For the growth profiling experiments the S. aureus strain CCUG10778 was cultured overnight in sterile TSB medium and diluted 1:100 by adding 1 μL into TSB medium in a sterilized, clear polystyrene 96-well plate to a final assay volume of 100 μL. Subsequently, peptides were added to the bacteria from filter sterilized stocks in MQ-H2O to give 2, 8, 32 and 128 μg/ml final concentrations. Then, bacteria were incubated at 37 °C for 3, 6, 12, 24, 36 or 48 hours and their absorbance was measured at 600 nm using a Varioskan Lux microplate reader (Thermo Fisher Scientific, Waltham, MA, USA). All individual samples were carried out in triplicate. […]
Then, bacteria […]
were incubated at 37 °C for 24 hours and centrifuged for 3 minutes at 3000 rpm in an Eppendorf Microstar 30r centrifuge. The supernatant was discarded and the cells were washed once with sterilized PBS and centrifuged. 100 μL PBS-T (PBS + 0.1% Triton-X) was added to the cells for 15 minutes to induce cell membrane permeabilization. After removal of the PBS-T by centrifugation, 100 μL of 5 μM Sytox Green (Invitrogen, Waltham, MA, USA) solution in PBS

The subject of assay [4] is SrtA. The settings on record: cited from earlier work.
For assay [5], the system named is S. aureus strain CCUG10778 biofilm. Particulars: BHI, rabbit plasma coated plate.
Assay [6] has as its system S. aureus. The assay can be described thus: Sytox Green fluorescence measurement of S. aureus incubated with inhibitors. Type of assay: cell-based. Particulars: 24 hours, control 294.0 ± 0.1. The protocol: To achieve this, S. aureus was again incubated with our peptidomimetic inhibitors, specifically, 18, 22, 23 and 24 at 8, 32 and 128 μg mL^−1 and harvested after 24 hours to ensure the bacteria reach their growth plateau. Peptide 24 was included to confirm the influence of the N-terminal benzyl group. The bacterial cells were permeabilized and their […] were labelled using Sytox Green and subsequently their fluorescence was measured quantitatively. […] Bacteria incubated with 32 and 128 μg mL^−1 of 18 as well as 128 μg mL^−1 of 22 were also imaged using fluorescence microscopy (Fig. 4). In the control sample, planktonic bacteria could be abundantly observed (Fig. 4a). While it was hard to distinguish the microscopy images for the less strong inhibition (Fig. 4b and c), it became evident from the sample with 128 μg mL^−1 of 18 that visually bacterial growth was affected as well (Fig. 4d) where the bacteria were much more sparsely distributed in the sample. […]
For the fluorescence experiments S. aureus was cultured overnight in sterile TSB medium and diluted 1:250 by adding 2.5 μL bacterial culture into TSB medium in sterilized 1.5 mL Eppendorf tubes to a final volume of 500 μL. Subsequently, peptides were added to the bacteria from filter sterilized stocks in MQ-H2O to give 8, 32 and 128 μg/ml final concentrations. Then, bacteria were incubated at 37 °C for 24 hours and centrifuged for 3 minutes at 3000 rpm in an Eppendorf Microstar 30r centrifuge. The supernatant was discarded and the cells were washed once with sterilized PBS and centrifuged. 100 μL PBS-T (PBS + 0.1% Triton-X) was added to the cells for 15 minutes to induce cell membrane permeabilization. After removal of the PBS-T by centrifugation, 100 μL of 5 μM Sytox Green (Invitrogen, Waltham, MA, USA) solution in PBS […]
was added and the cells were stained for 30 minutes, centrifuged and washed with PBS twice.
For the fluorescence measurements, the cells were resuspended with 100 μL of PBS and added in a sterilized, white plastic polystyrene 96-well plate and their fluorescence was measured by exciting the samples at 488nm and measuring the fluorescence intensity at 533 nm in a microplate reader. All individual samples were carried out in duplicate. For the fluorescence microscopy experiments, the cells were treated in the same, but resuspended in 10 μL of PBS and 5 μL of bacterial suspension was spotted on a glass target plate dipped in a melted solution of 1.2% agarose in Tris-HCl (50 mM) to ensure fixation of the sample. The sledes were covered by a cover glass and observed on an Axio Imager Z2m fluorescence microscope (Zeiss, Jena, Germany) at 100 times magnification at the emission wavelength of […]
Biofilm inhibition assays
For the biofilm inhibition experiments the S. aureus strain CCUG10778 was cultured overnight in sterile BHI broth. A sterilized, clear polystyrene 96-well plate was prepared by coating with plasma by addition of 20% of final assay volume rabbit plasma to the wells and incubating overnight at 4 °C. Then, the cultured strain was diluted 1:100 by adding 2 μL into BHI medium on the plasma coated plate to a total volume of 200 μL. Subsequently, peptides were added to the bacteria from filter sterilized stocks in MQ-H2O to give 8, 32 and 128 μg/ml final concentrations and incubated for 12 hours at 37 °C without shaking. The supernatant was removed and the wells were rinsed with PBS and 100 μL of 1% crystal violet solution (diluted in PBS) was added and the biofilms were stained for 10 minutes. The wells were washed with PBS twice and 200 μL of a 95% ethanol solution in water was added to solubilize the cells for 30 minutes. 100 μL was transferred into a new 96-well plate and the absorbance measured at 595 nm using a Varioskan Lux microplate reader. All individual samples were carried out in […]
All computational studies and analysis steps were performed employing the YASARA molecular modeling program.6, 7
Molecular graphics were created with YASARA (www.yasara.org) and POVRay […]

Several values for one entry are separate records, joined by “and”; a condition that tells them apart may be missing. Equal values may be shown once. Read-outs that look alike come from different tables or passages of the source. Non-standard residues stand in square brackets, D forms with d. Residues, ends and D or L forms follow the SMILES beside them. *: point of attachment. Bz = O=C(c1ccccc1)*; Sar = CNCC(=O)O

T1 sequence (Q2FV99 60-206): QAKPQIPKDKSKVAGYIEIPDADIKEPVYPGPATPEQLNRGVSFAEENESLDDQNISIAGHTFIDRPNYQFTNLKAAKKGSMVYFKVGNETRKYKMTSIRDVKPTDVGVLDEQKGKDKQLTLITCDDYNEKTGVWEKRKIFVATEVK

For orientation: IC50 means the concentration that gives 50% inhibition. In general, inhibition refers to the change of the read-out against control, counted positive when it falls. Turning to `CC(C)C[C@H](NC(=O)c1ccccc1)C(=O)N1CCC[C@H]1C(=O)N[C@@H](CCCNC(=N)N)C(=O)N[C@@H](CC(=O)O)C(=O)N[C@@H](Cc1ccccc1)C(N)=O` [Compound 23, BzLPRDF] (Bz-LPRDF-NH2), in assay [1], the IC50 is 114 ± 1.3 µM and the inhibition at 200 µM turned out to be 113 ± 26%. For GTEPL [Compound 9], the FRET inhibition in assay [1] was 38% and 37.7 ± 3.1%. Turning to ChLPRDA [Compound 12], the FRET inhibition in assay [1] is listed as 21.6 ± 4.2%. CbzLPRDA [Compound 14] gave an FRET inhibition in assay [1] of 17.0 ± 2.8%.

As for KSFLPATGGAE [Compound 8], the FRET inhibition in assay [1] is 18% and 18.1 ± 2.9%. The compound H-LPETP-NH2 [Compound 7, LPETP] had an IC50 in assay [1] of 136.3 ± 1.2 µM. As for Ado-LPRDA [Compound 3], the FRET inhibition in assay [1] was determined as 22.6 ± 2.8%. As to LPRDA-Ado [Compound 2], in assay [1], the FRET inhibition worked out at 30.4 ± 2.8%.

Turning to BzLPETP [Compound 19], in assay [1], the FRET inhibition amounted to 15.1 ± 3.8%.

Regarding 2NapLPRDA [Compound 13], the FRET inhibition in assay [2] is 47% and 47.4 ± 1.1 (at 10 μM) %. In addition, in assay [3], the “effect on bacterial growth (absorbance plateau, OD600)” value is recorded as “did not have any effect”.

`Nc1nnc(SCc2ccc([N+](=O)[O-])cc2)s1` [Reference (0), 5-((4-nitrobenzyl)thio)-1,3,4-thiadiazol-2-amine, reference compound] came in with an FRET inhibition in assay [1] of 77.1 ± 4.1%. For the same compound, the IC50 in assay [4] (reported covalent inhibitor, ref 42 (supplement ref 4)) was 26 ± 0.7 µM; in assay [4] (reported covalent inhibitor, ref 42 (supplement ref 4), listed as 5-((C4-Nitrobenzyl)thio)-1,3,4-thiadiazol-2-amine) it was about 26 µM. The “effect on bacterial growth (absorbance plateau, OD600)” value in assay [3] is reported as “did not show any activity”. With BzLPRDA [Compound 11], the FRET inhibition in assay [1] was 37% and 37.2 ± 3.1%.

In the case of ELPRDA [Compound 27], the FRET inhibition in assay [1] was 26% and 26.2 ± 2.0%. As to `CC(C)C[C@H](NC(=O)c1ccccc1)C(=O)N1CCC[C@H]1C(=O)N[C@@H](CCCNC(=N)N)C(=O)N[C@@H](CC(=O)O)C(=O)N(C)CC(N)=O` [Compound 18, BzLPRDSar] (Bz-LPRD[Sar]-NH2), in assay [1], the IC50 is 57.4 ± 1.1 µM. Moreover, in assay [1], the inhibition at 200 µM is 108 ± 6.9%. For the same compound, the biofilm inhibition in assay [5] (8 μg mL^−1, 12 hours) worked out at 52%; in assay [5] (32 μg mL^−1, 12 hours), 73%; in assay [5] (128 μg mL^−1, 12 hours), 95%. Regarding `CC(C)C[C@H](N)C(=O)N1CCC[C@H]1C(=O)N[C@@H](CCCNC(=N)N)C(=O)N[C@@H](CC(=O)O)C(=O)N(C)CC(N)=O` [Compound 5, LPRD-Sar] (H-LPRD[Sar]-NH2), in assay [1], the FRET inhibition turned out to be 68.5 ± 2.6%, the IC50 was 18.9 ± 1.2 µM and the inhibition at 200 µM came to 69%. Turning to LPET-Sar [Compound 6], in assay [1], the FRET inhibition is on record as 19.4 ± 2.6%.

In the case of H-LPRDF-NH2 [Compound 24, LPRDF], in assay [1], the IC50 was determined as 136.9 ± 1.2 µM. Further, in assay [1], the inhibition at 200 µM amounted to 42.2 ± 6%. Also, the “Fluorescence value (Sytox Green, 533 nm)” value worked out at 315.7 ± 0.6 in assay [6] (8 μg/ml), 299.9 ± 1.2 in assay [6] (32 μg/ml) and 283.0 ± 0.9 in assay [6] (128 μg/ml). As to AcLPRDA [Compound 10], the FRET inhibition in assay [1] came out at 20.7 ± 2.9%.

As for BzLPRDP [Compound 21], the FRET inhibition in assay [1] came to 31.0 ± 7.6%. For the compound PEG2000-LPRDA-NH2, the IC50 in assay [4] (reported SrtA inhibitor) was 10.6 µM. As to LPRDP [Compound 20], the FRET inhibition in assay [1] is 32% and 32.3 ± 8.7%.

On to H2N-LPRDA-OH [Compound 1], for which the FRET inhibition in assay [1] is reported as 29.2 ± 2.6%.
